Tests used:
[1] = target: recombinant ceramidase from Pseudomonas aeruginosa PA01 (Pseudomonas aeruginosa, UniProt Q9I596); assay: Inhibition of recombinant Pseudomonas aeruginosa PA01 ceramidase, quenched fluorescent ceramide analog substrate; format: biochemical; details: for capability of inhibiting Pseudomonas aeruginosa ceramidase: known human ceramidase inhibitors, various concentrations, assay buffer containing 20 μM of substrate; for ceramidase inhibition ability, comparison in words: comparison among examples 1-9
Chain of recombinant ceramidase from Pseudomonas aeruginosa PA01 (Q9I596 25-670): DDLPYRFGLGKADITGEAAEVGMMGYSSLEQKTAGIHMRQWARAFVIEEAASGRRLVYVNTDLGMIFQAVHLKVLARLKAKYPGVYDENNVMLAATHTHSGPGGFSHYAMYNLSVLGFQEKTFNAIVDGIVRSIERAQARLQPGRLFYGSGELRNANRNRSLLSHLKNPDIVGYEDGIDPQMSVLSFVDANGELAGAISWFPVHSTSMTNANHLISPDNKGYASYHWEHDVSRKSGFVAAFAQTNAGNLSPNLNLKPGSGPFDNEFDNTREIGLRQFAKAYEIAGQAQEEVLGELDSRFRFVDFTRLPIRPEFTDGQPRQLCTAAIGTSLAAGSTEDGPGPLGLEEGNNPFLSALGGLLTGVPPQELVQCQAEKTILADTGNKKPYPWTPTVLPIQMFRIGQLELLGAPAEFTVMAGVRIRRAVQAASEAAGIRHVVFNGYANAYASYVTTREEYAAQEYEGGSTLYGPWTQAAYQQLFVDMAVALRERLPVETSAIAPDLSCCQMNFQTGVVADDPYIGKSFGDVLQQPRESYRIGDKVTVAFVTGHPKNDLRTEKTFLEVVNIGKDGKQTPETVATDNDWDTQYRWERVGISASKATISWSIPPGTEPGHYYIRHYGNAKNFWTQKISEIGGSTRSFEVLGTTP
Protocol: The effect of various active compounds on the enzymatic activity of recombinant ceramidase from Pseudomonas aeruginosa PA01 was tested.
The assays were performed at 25° C., with magnetic stirring, using Photo Technology International fluorimeter equipped with a LPS 220 Lamp Power Supply, a 810 Photomultiplier Detector System, a MD 5020 Motor Driver, and a Dell Dimensions M166a computer with FELIX® software. Excitation was done at 346 nm (±2 nm) and the emission was measured at 378 nm (±2 nm).The assay buffer consisted of 50 mM Tris/HCl, 4 mM CaCl2, 0.1% w/v Triton X-100, pH 8.5.
The active compounds were dissolved in DMF (dimethylformamide) to a concentration of 4 mM. Of these solutions, 250 μliter was added to 50 milliliter assay buffer under vortex, yielding 20 μM lipid solutions.
To 1 mL of the lipid solution in a cuvet, 5 μL of quenched fluorescent ceramide analog as a substrate was added (end concentration 2 μM) and the system was allowed to equilibrate for 5 minutes. Then 5 μL of recombinant ceramidase was added (end concentration 4.3 nM). The reaction was allowed to proceed for 20 minutes. The slope at 378 nm was used to determine the reaction rate.
Control experiments were done in the absence of sphingolipids, with corresponding amounts of DMF (0.5% v/v for the 20 μM samples). The reaction rate of the controls was set at 100%. The percentages in the table are given as % of inhibition (control value—reaction rate of the sample).
The potential of several known human ceramidase inhibiting compounds of inhibiting Pseudomonas aeruginosa PA01 ceramidase was tested at various concentrations, in the assay buffer containing 20 μM of substrate.
The potential of several ceramide and sphingoid bases of inhibiting Pseudomonas aeruginosa PA01 ceramidase was tested at a pH of 8.5, using respectively, 2 μM and 20 μM of ceramidase substrate, 1.6 mM Triton X-100 and 4 mM of CaCl2.

[2] = system: ceramidase originating from guinea pig epidermis; details: in vitro; cited from earlier work
[3] = target: T1, human alkaline ceramidase (aPHC) (Homo sapiens, UniProt Q9NUN7); details: in vitro and in cells; cited from earlier work
T1 construct: host or cells: yeast mutant strain (as cited)
T1 sequence (Q9NUN7 1-267): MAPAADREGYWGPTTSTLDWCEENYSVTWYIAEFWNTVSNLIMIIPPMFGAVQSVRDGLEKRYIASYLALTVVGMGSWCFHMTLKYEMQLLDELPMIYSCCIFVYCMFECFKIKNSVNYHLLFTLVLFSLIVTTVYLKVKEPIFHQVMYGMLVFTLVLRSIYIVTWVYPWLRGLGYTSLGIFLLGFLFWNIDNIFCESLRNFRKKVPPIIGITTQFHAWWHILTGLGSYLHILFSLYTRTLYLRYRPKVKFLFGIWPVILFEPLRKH

[4] = target: T2, ceramidase originating from mitochondria of rat brain (Rattus norvegicus, UniProt Q91XT9); details: cited from earlier work
T2 construct: host or cells: rat brain mitochondria
T2 sequence (Q91XT9 whole entry): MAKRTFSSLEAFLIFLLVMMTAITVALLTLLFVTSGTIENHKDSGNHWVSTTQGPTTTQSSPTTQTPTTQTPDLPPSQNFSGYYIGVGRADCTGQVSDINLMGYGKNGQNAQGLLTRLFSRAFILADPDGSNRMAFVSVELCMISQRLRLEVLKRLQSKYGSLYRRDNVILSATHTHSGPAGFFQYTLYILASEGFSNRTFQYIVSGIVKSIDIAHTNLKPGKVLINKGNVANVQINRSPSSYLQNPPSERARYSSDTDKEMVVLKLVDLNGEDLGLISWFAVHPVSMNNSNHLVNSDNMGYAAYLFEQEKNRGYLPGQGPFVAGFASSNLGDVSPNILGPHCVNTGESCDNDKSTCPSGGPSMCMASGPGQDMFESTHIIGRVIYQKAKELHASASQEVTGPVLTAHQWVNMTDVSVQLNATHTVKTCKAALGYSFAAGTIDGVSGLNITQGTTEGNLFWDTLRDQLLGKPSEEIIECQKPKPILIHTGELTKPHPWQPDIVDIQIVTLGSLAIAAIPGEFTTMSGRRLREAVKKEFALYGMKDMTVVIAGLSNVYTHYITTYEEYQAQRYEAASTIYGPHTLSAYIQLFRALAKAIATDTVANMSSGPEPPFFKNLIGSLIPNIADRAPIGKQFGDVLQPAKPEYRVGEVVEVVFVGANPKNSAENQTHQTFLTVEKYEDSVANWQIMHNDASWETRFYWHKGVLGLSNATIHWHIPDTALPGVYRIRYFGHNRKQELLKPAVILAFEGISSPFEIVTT

[5] = 20 μM active compound, pH 8.5, 25° C., 4 mM CaCl2, Triton X-100, control rate = 100%

SMILES	% of inhibition [1, 5]	capability of inhibiting Pseudomonas aeruginosa ceramidase [1]	further results
CCCCCCCCCCCCCCCCC(O)C(=O)N[C@@H](CO)[C@H](O)[C@H](O)CCCCCCCCCCCCCC (stereo partly drawn) [Ceramide VI]	11%		
C[C@@H](N)[C@@H](O)c1ccccc1 [D(+)-norephenidrin, reference compound]		None of these compounds was found capable of inhibiting	
CCCCCCCCCCCCCC(=O)N[C@H](C)[C@@H](O)c1ccccc1 [D-erytro-MAPP, (1S,2R)-D-erythro-2-(N-myristoylamino)-1-phenyl-1-propanol, reference compound]		None of these compounds was found capable of inhibiting	
CCCCCCCCCCCCCCC[C@H](O)[C@H](N)CO [D/L sphinganine]	83%		
CCCCCCCCCCCCC/C=C/[C@@H](O)[C@@H](N)CO [D—erythro—sphingosine]	97%		ceramidase inhibition ability, comparison in words [1]: highest ceramidase inhibition ability
C[C@H](N)[C@H](O)c1ccccc1 [L(−)-norephenidrin, reference compound]		None of these compounds was found capable of inhibiting	
CCCCCCCCCCCCCC(=O)N[C@@H](C)[C@H](O)c1ccccc1 [L-erythro-MAPP, reference compound]		None of these compounds was found capable of inhibiting	
CCCCCCCCCCCCC/C=C/[C@H](O)[C@H](N)CO [L—erythro—sphingosine]	20%		
CCCCCCCCCCCCCC[C@@H](O)[C@@H](O)[C@H](CO)NC(C)=O [MAPS, N-monoacetyl phytosphingosine]	35%		
CCCCCCCC/C=C\CCCCCCCC(=O)NCCO [N-oleoylethanolamine, reference compound]		None of these compounds was found capable of inhibiting	
CCCCCCCCCCCCCC[C@@H](O)[C@@H](O)[C@H](CO)NC(C)=O [N—acetyl—phytosphingosine]	9%		
CCCCCCCCCCCCCC[C@@H](O)[C@@H](O)[C@@H](N)CO.Cl [Phytosphingosine.HCl]	67%		% of inhibition ([1]; 2 μM active compound, pH 8.5, 25° C., 4 mM CaCl2, Triton X-100, control rate = 100%): 15%; ceramidase inhibition ability, comparison in words [1]: better ceramidase inhibiting effect than phytosphingosine
CCCCCCCCCCCCCC[C@@H](O)[C@@H](O)[C@@H](N)CO [Phytosphingosine]			inhibition at 2 µM ([1]; pH 8.5, 2 μM active compound, pH 8.5, 25° C., 4 mM CaCl2, Triton X-100, control rate = 100%): 7.5%; inhibition at 20 µM ([1]; pH 8.5, read-out: % of inhibition, 20 μM active compound, pH 8.5, 25° C., 4 mM CaCl2, Triton X-100, control rate = 100%): 60%
CCCCCCCCCCCCCCC(OC(C)=O)C(OC(C)=O)C(COC(C)=O)NC(C)=O (stereo not drawn) [TAPS, tetraacetyl-phytosphingosine]	22%		
CCCCCCCCCCCCC/C=C/[C@@H](O)[C@@H](N)CO [sphingosine]			inhibition of ceramidase [2]: inhibiting ceramidase; inhibition of human alkaline ceramidase [3]: inhibited by sphingosine; inhibition of ceramidase [4]: capable of inhibiting ceramidase

Source: patent US20030064936A1 (priority 2001, published 2003)
